Source: patent publication US4461901A, “Pyridyl containing 1,2-benzisothiazole-3-amine derivatives” (American Home Products Corporation, priority 1983, dated 1984)
Counter-ions that a name gives are not always drawn.

Legend:
[1] = cited from earlier work
histamine H2 receptor = target: T1, histamine H2 receptor (Cavia porcellus, UniProt P47747); assay: guinea pig heart atrium test: inhibition of histamine-induced positive chronotropic response in the spontaneously beating right atrium; conditions: read-out: pA2 Value (apparent dissociation constant of the H2 antagonist) (converted)
T1 construct: from tissue; host or cells: guinea pig right atrium (isolated, spontaneously beating)
Method: The guinea pig heart atrium test is carried out as follows.
A guinea pig right atrium is suspended at 1 g tension (isometric) in the thermostatically controlled (32° C.) tissue bath (10 ml) containing oxygenated (95% O2; 5% CO2) Krebs-Haenseleit buffer (pH 7.4). The tissue is allowed to stabilize over 1 hour. Individual contractions are recorded with a force-displacement transducer through a strain gauge coupler. A control dose-response curve to histamine in the above described tissue bath is obtained after which the tissue is washed 3 times and allowed to re-equilibrate to basal rate. The test compound is added to the tissue bath at the desired final concentration. Thirty minutes after addition of the compound, a fresh histamine dose response curve is again obtained. Then the response to histamine in the presence of antagonist is compared to the histamine control response. This procedure is repeated, using fresh tissues, for each concentration of antagonist tested.

gastric acid secretion = assay: gastric secretion in the rat, modified Shay procedure of pylorus ligation; assay type: in vivo; conditions: 32 mg/kg, interduodenally (i.d.), male Charles River rats, four hours after ligation
Method: The procedures for these tests and the results for some of the compounds of the invention are presented at the end of the following examples, which will serve to illustrate the present invention.
The procedure for testing gastric secretion in the rat, a modification of the procedure of Shay et al., Gastroenterology, 26, 906-13 (1954) is carried out as follows.
Male Charles River rats weighing 200-300 grams are deprived of food but not water for 24 hours prior to use. Water is, however, withheld during the experiment. The rats are weighed, anesthetized, and the pylorus ligated according to the method of Shay et al. Treatment or vehicle control is then administered interduodenally (i.d.). Rats are housed 2/cage and sacrificed with CO2 four hours after ligation. The stomachs are removed, rinsed, and contents emptied into a graduated centrifuge tube. The tubes are centrifuged for 20 minutes at 2,000 RPM and the volume of gastric juice recorded. Any samples obviously contaminated by feces, food or hemolysis are eliminated. An aliquot of each is frozen for later analysis of Na^+, K^+ and Cl^- concentration. The pH is measured and 1 ml of gastric juice is titrated with 0.1N NaOH to a pH of 7.0-7.4. Titratable acid output is calculated in microequivalents and the percent inhibition of acid output is calculated as follows: [formula]

H2 histamine receptors = conditions: background statement; cited from earlier work

T1 sequence (P47747 whole entry): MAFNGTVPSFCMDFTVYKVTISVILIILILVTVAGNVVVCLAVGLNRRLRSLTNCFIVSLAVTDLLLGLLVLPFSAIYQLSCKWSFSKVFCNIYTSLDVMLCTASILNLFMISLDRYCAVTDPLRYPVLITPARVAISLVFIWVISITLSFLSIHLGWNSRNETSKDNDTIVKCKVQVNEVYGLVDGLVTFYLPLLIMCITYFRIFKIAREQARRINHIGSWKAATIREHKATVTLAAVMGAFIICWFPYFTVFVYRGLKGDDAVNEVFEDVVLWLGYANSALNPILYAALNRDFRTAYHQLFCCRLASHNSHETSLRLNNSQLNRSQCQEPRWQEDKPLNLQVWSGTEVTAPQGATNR

For `CN/C(=N/CCSCc1nc[nH]c1C)NC#N` [Cimetidine], the confusional states ([1]; elderly patients) is listed as “tendency to cause confusional states in elderly patients”, the anti-androgenic activity ([1]; patients) is listed as “anti-androgenic activity” and the duration of action ([1]; patients) is listed as “short duration of action”.
`Nc1ncccc1OCCCNC1=NS(=O)(=O)c2ccccc21` [Example 2, N-[3-[(2-amino-3-pyridinyl)oxy]propyl]-1,2-benzisothiazol-3-amine 1,1-dioxide, hydrochloride, hemihydrate] showed a Kb (histamine H2 receptor) of 10 nM.
For `Nc1cc(OCCCNC2=NS(=O)(=O)c3ccccc32)ccn1` [Example 3, N-[3-[(2-amino-4-pyridinyl)oxy]propyl]-1,2-benzisothiazol-3-amine 1,1 dioxide, hydrochloride, hemiethanolate], the “% Inhibition (of acid output)” value (gastric acid secretion) was 57% and the Kb (histamine H2 receptor) was 10 nM.
In the case of `CNC(=NC#N)NCCSCc1csc(N=C(N)N)n1` [tiotidine], the “selective H2 antagonist activity versus cimetidine” value (H2 histamine receptors) is listed as “greater activity than cimetidine”.
